{"source": "paper PMC7184563", "about": "(Journal of Medicinal Chemistry, 2020)", "key": {"[1]": {"test": "PK study in SCID mouse, po", "type": "in vivo", "details": "15 mg/kg po"}, "BCL6 levels in tumor": {"biological_target": "BCL6 levels in tumor (Homo sapiens, UniProt P41182)", "test": "PK/PD study in OCI-Ly1 DLBCL xenograft model", "details": "single dose 15 mg/kg po"}, "[2]": {"type": "in vivo, mouse", "details": "1 mg/kg iv and 5 mg/kg po, after dosing and 24 h after dose"}, "BCL6 BTB": {"biological_target": "BCL6 BTB (Homo sapiens, UniProt P41182)", "test": "biochemical", "details": "BCL6 IC50 (FP), geometric mean"}, "HPLC solubility assay": {"test": "HPLC solubility assay", "type": "physicochemical", "details": "kinetic solubility by HPLC in PBS buffer, 1% DMSO, pH 7.4"}, "PAMPA permeability": {"test": "PAMPA permeability", "type": "in vitro ADME"}, "Microsomal clearance": {"test": "Microsomal clearance", "type": "in vitro ADME"}, "BCL6 [3]": {"biological_target": "T1, BCL6 (Homo sapiens, UniProt P41182)", "type": "cell-based", "details": "SU-DHL-4"}, "[4]": {"test": "Microsomal clearance assay, mouse liver microsomes", "type": "in vitro ADME"}, "BCL6 [5]": {"biological_target": "T1, BCL6", "test": "Western blot of BCL6 protein levels, SU-DHL-4 cells", "type": "cell-based", "details": "4 h at 37 °C"}, "BCL6 [6]": {"biological_target": "T1, BCL6", "test": "Western blot of BCL6 protein levels, OCI-Ly1 cells", "type": "cell-based", "details": "4 h at 37 °C"}}}
{"smiles": "C[C@@H]1CN(c2ncc(Cl)c(Nc3ccc4c(c3)n(CCC(C)(C)O)c(=O)n4C)n2)C[C@H](C)C1(F)F", "note": "[Compound 1, 5-((5-Chloro-2-((3R,5S)-4,4-difluoro-3,5-dimethylpiperidin-1-yl)pyrimidin-4-yl)amino)-3-(3-hydroxy-3-methylbutyl)-1-methyl-1,3-dihydro-2H-benzo[d]imidazol-2-one]", "values": [{"measurement": "time mean total blood concentration above the desired concentration", "setting": "[1]", "value": "approximately 10 h"}, {"measurement": "free concentration that leads to degradation of BCL6 in tumor", "setting": "BCL6 levels in tumor", "value": "> 1", "unit": "nM"}, {"measurement": "time of maximal effect on tumor BCL6", "setting": "BCL6 levels in tumor", "value": "~4", "unit": "h"}, {"measurement": "levels of BCL6 in the tumor", "setting": "BCL6 levels in tumor; OCI-Ly1 xenograft, up to 10 h after dosing", "value": "clear decrease in levels of BCL6 in the tumor"}, {"measurement": "adverse events", "setting": "BCL6 levels in tumor; SCID mice", "value": "No visible adverse events were observed"}, {"measurement": "appearance of mice after dosing", "setting": "[2]", "value": "appeared normal"}]}
{"smiles": "N#Cc1c(NCc2ccccc2)ccnc1Cl", "note": "[Compound 2]", "values": [{"measurement": "IC50", "setting": "BCL6 BTB", "value": "~100", "unit": "µM"}]}
{"smiles": "Cn1c(=O)n(C)c2cc(Nc3cc(SCc4ccccc4)ncn3)ccc21", "note": "[Compound 3]", "values": [{"measurement": "IC50", "setting": "BCL6 BTB", "value": "~100", "unit": "µM"}]}
{"smiles": "Cn1c(=O)n(C)c2cc(Nc3ccnc(Cl)c3C#N)ccc21", "note": "[Compound 6, 2-Chloro-4-((1,3-dimethyl-2-oxo-2,3-dihydro-1H-benzo[d]imidazol-5-yl)amino)nicotinonitrile]", "values": [{"measurement": "Aq. sol. (HPLC, shown in parentheses)", "setting": "HPLC solubility assay", "value": "(16) μM"}, {"measurement": "PAMPA permeability (in words)", "setting": "PAMPA permeability", "value": "high PAMPA permeability"}, {"measurement": "microsomal clearance (in words)", "setting": "Microsomal clearance", "value": "Low microsomal clearance"}]}
{"smiles": "Cn1c(=O)n(CCC(C)(C)O)c2cc(Nc3ccnc(Cl)c3C#N)ccc21", "note": "[Compound 17a, 2-Chloro-4-((3-(3-hydroxy-3-methylbutyl)-1-methyl-2-oxo-2,3-dihydro-1H-benzo[d]imidazol-5-yl)amino)nicotinonitrile]", "values": [{"measurement": "Aq. sol. (HPLC, shown in parentheses)", "setting": "HPLC solubility assay", "value": "(25) μM"}]}
{"smiles": "CC1CCCN(c2ncc(Cl)c(Nc3ccc4c(c3)n(CCC(C)(C)O)c(=O)n4C)n2)C1", "note": "(centres unmarked) [Compound 24a, 5-((5-Chloro-2-(3-methylpiperidin-1-yl)pyrimidin-4-yl)amino)-3-(3-hydroxy-3-methylbutyl)-1-methyl-1,3-dihydro-2H-benzo[d]imidazol-2-one]", "values": [{"measurement": "BCL6 degradation in the IF assay (in words)", "setting": "BCL6 [3]", "value": "identified as degraders"}, {"measurement": "metabolism in mouse microsomes (in words)", "setting": "[4]", "value": "rapid metabolism"}]}
{"smiles": "C[C@@H]1C[C@H](C)CN(c2ncc(Cl)c(Nc3ccc4c(c3)n(CCC(C)(C)O)c(=O)n4C)n2)C1", "note": "[Compound 24b, 5-((5-Chloro-2-((3S,5R)-3,5-dimethylpiperidin-1-yl)pyrimidin-4-yl)amino)-3-(3-hydroxy-3-methylbutyl)-1-methyl-1,3-dihydro-2H-benzo[d]imidazol-2-one]", "values": [{"measurement": "BCL6 protein levels by Western blot, SU-DHL-4", "setting": "BCL6 [5]", "value": "concentration-dependent reduction in BCL6 protein levels"}, {"measurement": "BCL6 degradation in the IF assay (in words)", "setting": "BCL6 [3]", "value": "identified as degraders"}, {"measurement": "metabolism in mouse microsomes (in words)", "setting": "[4]", "value": "rapid metabolism"}, {"measurement": "BCL6 protein levels by Western blot, OCI-Ly1", "setting": "BCL6 [6]", "value": "concentration-dependent reduction in BCL6 protein levels"}]}
{"smiles": "C[C@@H]1CN(c2ncc(Cl)c(Nc3ccc4c(c3)n(CCC(C)(C)O)c(=O)n4C)n2)C[C@H](C)O1", "note": "[Compound 25a, 5-((5-Chloro-2-((2R,6S)-2,6-dimethylmorpholino)pyrimidin-4-yl)amino)-3-(3-hydroxy-3-methylbutyl)-1-methyl-1,3-dihydro-2H-benzo[d]imidazol-2-one]", "values": [{"measurement": "BCL6 degradation in the IF assay (in words)", "setting": "BCL6 [3]", "value": "not capable of inducing BCL6 degradation"}]}
{"smiles": "C[C@@H]1CN(c2ncc(Cl)c(Nc3ccc4c(c3)n(CCC(C)(C)O)c(=O)n4C)n2)C[C@H](C)N1C", "note": "[Compound 25c, 5-((5-Chloro-2-((3S,5R)-3,4,5-trimethylpiperazin-1-yl)pyrimidin-4-yl)amino)-3-(3-hydroxy-3-methylbutyl)-1-methyl-1,3-dihydro-2H-benzo[d]imidazol-2-one]", "values": [{"measurement": "BCL6 degradation in the IF assay (in words)", "setting": "BCL6 [3]", "value": "not capable of inducing BCL6 degradation"}]}
{"smiles": "C[C@@H]1C[C@H](C)CN(c2cc(Nc3ccc4c(c3)n(CCC(C)(C)O)c(=O)n4C)c(Cl)cn2)C1", "note": "[Compound 26b, 5-((5-Chloro-2-((3S,5R)-3,5-dimethylpiperidin-1-yl)pyridin-4-yl)amino)-3-(3-hydroxy-3-methylbutyl)-1-methyl-1,3-dihydro-2H-benzo[d]imidazol-2-one]", "values": [{"measurement": "BCL6 degradation in the IF assay (in words)", "setting": "BCL6 [3]", "value": "identified as degraders"}]}
{"smiles": "COCC1CN(c2ncc(Cl)c(Nc3ccc4c(c3)n(CCC(C)(C)O)c(=O)n4C)n2)CCC1(F)F", "note": "(centres unmarked) [Compound 27f, 5-((5-Chloro-2-(4,4-difluoro-3-(methoxymethyl)piperidin-1-yl)pyrimidin-4-yl)amino)-3-(3-hydroxy-3-methylbutyl)-1-methyl-1,3-dihydro-2H-benzo[d]imidazol-2-one]", "values": [{"measurement": "BCL6 degradation in the IF assay (in words)", "setting": "BCL6 [3]", "value": "reduced degradation"}]}
{"smiles": "Cn1c(=O)n(CCC(C)(C)O)c2cc(Nc3nc(N4CCCC(C#N)C4)ncc3Cl)ccc21", "note": "(centres unmarked) [Compound 27g, 1-(5-Chloro-4-((3-(3-hydroxy-3-methylbutyl)-1-methyl-2-oxo-2,3-dihydro-1H-benzo[d]imidazol-5-yl)amino)pyrimidin-2-yl)piperidine-3-carbonitrile]", "values": [{"measurement": "BCL6 degradation in the IF assay (in words)", "setting": "BCL6 [3]", "value": "did not enable degradation"}]}
{"smiles": "Cn1c(=O)n(CCC(C)(C)O)c2cc(Nc3nc(N4CCC(C(F)(F)F)CC4)ncc3Cl)ccc21", "note": "[Compound 27h, 5-((5-Chloro-2-(4-(trifluoromethyl)piperidin-1-yl)pyrimidin-4-yl)amino)-3-(3-hydroxy-3-methylbutyl)-1-methyl-1,3-dihydro-2H-benzo[d]imidazol-2-one]", "values": [{"measurement": "BCL6 degradation in the IF assay (in words)", "setting": "BCL6 [3]", "value": "loss of degradation activity"}]}
{"smiles": "Cn1c(=O)n(CCC(C)(C)O)c2cc(Nc3nc(N4CC5CCC(C4)C5(F)F)ncc3Cl)ccc21", "note": "[Compound 28a, 5-((5-Chloro-2-(8,8-difluoro-3-azabicyclo[3.2.1]octan-3-yl)pyrimidin-4-yl)amino)-3-(3-hydroxy-3-methylbutyl)-1-methyl-1,3-dihydro-2H-benzo[d]imidazol-2-one]", "values": [{"measurement": "BCL6 degradation in the IF assay (in words)", "setting": "BCL6 [3]", "value": "loss of degradation activity"}]}
{"smiles": "Cn1c(=O)n(CCC(C)(C)O)c2cc(Nc3nc(N4C5CCC4CC(F)(F)C5)ncc3Cl)ccc21", "note": "[Compound 28b, 5-((5-Chloro-2-(3,3-difluoro-8-azabicyclo[3.2.1]octan-8-yl)pyrimidin-4-yl)amino)-3-(3-hydroxy-3-methylbutyl)-1-methyl-1,3-dihydro-2H-benzo[d]imidazol-2-one]", "values": [{"measurement": "BCL6 degradation in the IF assay (in words)", "setting": "BCL6 [3]", "value": "loss of degradation activity"}]}
